Test results reported in patent publication US8119159B2, “Solid oral dosage form containing an enhancer” (Merrion Research III Limited, priority 1999, dated 2012).

Columns and labels:
Caco-2 monolayers [1] = test: TEER of Caco-2 monolayers with MCFA sodium salts and 3H-TRH; assay type: cell-based; conditions: Caco-2 monolayers over 2 hours, sodium salts with 3H-TRH, concentrations of Table 1
Procedure: (§1) Cell Culture: Caco-2 cells were cultured in Dulbecco's Modified Eagles Medium (DMEM) 4.5 g/L glucose supplemented with 1% (v/v) non-essential amino acids; 10% fetal calf serum and 1% penicillin/streptomycin. […] The cells were grown and expanded in standard tissue culture flasks and were passaged once they attained 100% confluence. The Caco-2 cells were then seeded on polycarbonate filter inserts (Costar; 12 mm diameter, 0.4 μm pore size) at a density of 5×10^5 cells/cm^2 and incubated in six well culture plates with a medium change every second day. Confluent monolayers between day 20 and day 30 seeding on filters and at passages 30-40 were used throughout these studies.
(§2) Transepithelial Transport Studies: The effects of sodium salts of various MCFAs on the transport of ^3H-TRH (apical to basolateral flux) was examined as follows: 15.0 μCi/ml (0.2 μM) ^3H-TRH was added apically at time zero for TRH flux experiments. The transport experiments were performed in Hank's Balanced Salt Solution (HBSS) containing 25 mM N-[2-hydroxyethyl]-piperazine-N′-[2-ethanesulfonic acid] (HEPES) buffer, pH 7.4 at 37° C. Due to variations in solubilities, various concentrations of the different MCFA sodium salts and various apical buffers were used as shown in Table 1. In all cases the basolateral chamber contained regular HBSS+HEPES.
(§3) After removing the cell culture medium, the monolayers were placed in wells containing prewarmed HBSS (37° C.); 1 ml apically and 2 ml basolaterally. Monolayers were incubated at 37° C. for 30 mins. Then at time zero, apical HBSS was replaced with the relevant apical test solution containing the radiolabelled compounds with and without the enhancer compound. […] The plates were placed on an orbital shaker in an incubator (37° C.). Transport across the monolayers was followed by basolateral sampling (1 ml) at 30 min. intervals up to 120 mins. At each 30 min. interval each insert was transferred to a new well containing 2 ml fresh prewarmed HBSS. Apical stock radioactivity was determined by taking 10 μl samples at t=0 and t=120 mins. […] Mean values for ^3H-TRH concentrations were calculated for the apical and basolateral solutions at each time point.

[2] = tested on: plasma anti-factor Xa activity; test: Dog study of oral heparin/enhancer tablets, anti-factor Xa and clinical assessment; assay type: in vivo; conditions: dogs, IR formulations, equivalent dose of heparin
Procedure: Tablets from batches 3, 7 and 15 in Tables 5 and 6 above were dosed orally to groups of five dogs in a single dose crossover study. […] Blood samples for anti-factor Xa analysis were collected from the jugular vein at various time points.

[3] = Closed loop rat model, intraduodenal TRH with enhancer, serum TRH; assay type: in vivo; conditions: interduodenal bolus 500 or 1000 μg TRH with 35 mg enhancer
Procedure: Male Wistar rats (weight range 250 g-350 g) were anaesthetized with ketamine hydrochloride/acepromazine. […] All intraduodenal dose volumes (for samples and control) were 1 ml/kg. The proximal end of the segment was ligated and the loop was sprayed with isotonic saline (37° C.) to provide moisture and then replaced in the abdominal cavity avoiding distension. The incision was closed with surgical clips. A group of animals were administered TRH in PBS (100 μg in 0.2 ml) by subcutaneous injection as a reference.

[4] = Closed-loop rat segment, intraileal USP heparin with enhancer, APTT response; assay type: in vivo; conditions: USP heparin 1000 iu, sodium caprate 10 and 35 mg
Description: APTT measurements were taken at various time points.

Caco-2 monolayers [5] = test: 3H-TRH apical to basolateral transport (Papp) across Caco-2 monolayers; assay type: in vitro ADME; conditions: sodium salts at the concentrations of Table 1
Procedure: as §1, §2
as §3, with “At each 30 min. interval each insert was transferred to a new well containing 2 ml fresh prewarmed HBSS.” left out

[6] = tested on: plasma anti-factor Xa activity; test: Closed-loop rat segment, intraileal USP heparin with enhancer, plasma anti-factor Xa; conditions: USP heparin 1000 iu
Procedure: The procedure carried out in Example 1 (a) above was repeated using USP heparin in place of TRH and dosing intraileally rather than intraduodenally. A mid-line incision was made in the abdomen and the distal end of the ileum located (about 10 cm proximal to the ileo-caecal junction). 7-9 cm of tissue was isolated and the distal end ligated, taking care to avoid damage to surrounding blood vessels. Heparin absorption as indicated by […] (APTT) response was measured by placing a drop of whole blood (freshly sampled from the tail artery) on the test cartridge of Biotrack 512 coagulation monitor. APTT measurements were taken at various time points.
Citrated blood samples were centrifuged at 3000 rpm for 15 mins. to obtain plasma for anti-factor Xa analysis. […] The control in each case is a solution of the same heparin concentration containing no enhancer.

in vivo = test: in vivo
Procedure: Beagle dogs (10-15 Kg) were sedated with medetomidine (80 μg/kg) and an endoscope was inserted via the mouth, esophagus and stomach into the duodenum. The test solutions (10 ml), comprising leuprolide acetate (Mallinckrodt Inc, St. Louis, Mo.) with or without enhancer reconstituted in deionized water were administered intraduodenally via the endoscope. Following removal of the endoscope, sedation was reversed using atipamezole (400 μg/kg). The parenteral reference solutions comprising 1 mg Leuprolide reconstituted in 0.5 ml sterile water were administered intravenously and subcutaneously respectively.

[7] = tested on: plasma anti-factor Xa activity; test: Intraduodenal LMWH with enhancers in rats (open loop), plasma anti-factor Xa; assay type: in vivo, rat; conditions: intraduodenal 1000 IU, absence of enhancer
[8] = oral conventional forms, cited from earlier work

CCCCCCCCCC(=O)[O-].[Na+] [Batch C10, sodium caprate]
effect on TEER compared to the control (Caco-2 monolayers [1]): minimal reduction in TEER
anti-factor Xa response, NaC10 relative to NaC8 enhancer [2]: larger anti-factor Xa response
serum levels of TRH over the control TRH solution [3]: significantly increases
heparin absorption by APTT response vs control heparin solution [4]: significant increase in absorption
effect on permeability constant Papp for 3H-TRH compared to the control (Caco-2 monolayers [5]): considerable increases
anti-factor Xa activity relative to control heparin solution ([6]; enhancer 10 mg dose): significant increase
anti-factor Xa activity relative to control heparin solution ([6]; enhancer 35 mg dose): significant increase

CCNC(=O)[C@@H]1CCCN1C(=O)[C@H](CCCNC(=N)N)NC(=O)[C@H](CC(C)C)NC(=O)[C@@H](CC(C)C)NC(=O)[C@H](Cc1ccc(O)cc1)NC(=O)[C@H](CO)NC(=O)[C@H](Cc1c[nH]c2ccccc12)NC(=O)[C@H](Cc1c[nH]cn1)NC(=O)[C@@H]1CCC(=O)N1 [leuprolide, leuprolide acetate]
bioavailability (in vivo): 8%
systemic delivery of leuprolide (in vivo; dog, in vivo): negligible

CCCCCCCCCCCCCCCCCC(=O)[O-].[Na+] [Batch C18]
effect on TEER compared to the control (Caco-2 monolayers [1]): minimal reduction in TEER

parnaparin sodium [LMWH]
systemic delivery of LMWH [7]: relatively poor

CCCCCCCC(=O)[O-].[Na+] [Batch C8, sodium caprylate]
serum levels of TRH over the control TRH solution [3]: significantly increases

CCCCCCCCCCCCCC(=O)[O-].[Na+] [Batch C14]
effect on TEER compared to the control (Caco-2 monolayers [1]): minimal reduction in TEER
effect on permeability constant Papp for 3H-TRH compared to the control (Caco-2 monolayers [5]): considerable increases

CCCCCCCCCCCC(=O)[O-].[Na+] [Batch C12, sodium laurate]
effect on TEER compared to the control (Caco-2 monolayers [1]): some cell damage (reduction in TEER)
effect on permeability constant Papp for 3H-TRH compared to the control (Caco-2 monolayers [5]): considerable increases

NCCCC(O)(P(=O)(O)O)P(=O)(O)O [alendronate]
further share of the dose absorbed excreted in the urine ([8]; over the next 64 hours): 5%
share of the dose absorbed excreted in the urine ([8]; within 8 hours): 40%
